Like-named read-outs stand apart in the source and are kept apart here.
Target: T1, BCL6 (Homo sapiens, UniProt P41182)
T1 construct: endogenous in cells; host or cells: T47D breast cancer epithelial cells
Assay: Immunofluorescence protocol for high content imaging of BCL6 (degradation) in T47D cells, 3 days compound treatment
Assay type: cell-based
Conditions: for Dmax: read-out: Mean Dmax (%)** category; for DC50: read-out: Mean DC50 (nM)* category
In short: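 Cells are seeded to reach ~70-90% confluence at endpoint, then dosed next day with compound at a final top concentration of 0.1 or 1 μM (11 points, 3-fold). After 3 days, BCL6 is detected by immunofluorescence and quantified by high-content imaging.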

[1] = T47D cells, 3 days compound treatment

Structure (SMILES)	Dmax (T47D) [%]	DC50 [nM]	DC50 [1] [nM]	Dmax [1] [%]
CNC(=O)COc1cc2cc(Nc3nc(N4CCC(C(C)(C)N5CCC6(CC5)CN(c5cc(OC)cc7c5CN(C5CCC(=O)NC5=O)C7=O)C6)CC4)ncc3Cl)ccc2n(C(C)C)c1=O (stereo not drawn) [Compound 328, 2-{[6-({5-chloro-2-[4-(2-{2-[2-(2,6-dioxopiperidin-3-yl)-6-methoxy-1-oxo-2,3-dihydro-1H-isoindol-4-yl]-2,7-diazaspiro[3.5]nonan-7-yl}propan-2-yl)piperidin-1-yl]pyrimidin-4-yl}amino)-2-oxo-1-(propan-2-yl)-1,2-dihydroquinolin-3-yl]oxy}-N-methylacetamide]	50 to 70	< 10	–	–
CNC(=O)COc1cc2cc(Nc3nc(N4CCC(O[C@H]5C[C@H](N6CCC(c7ccc8c(c7F)CN(C7CCC(=O)NC7=O)C8=O)C(C)(C)C6)C5)CC4)ncc3Cl)ccc2n(C(C)C)c1=O (stereo partly drawn) [Compound 187, 2-({6-[(5-chloro-2-{4-[(1r,3r)-3-{4-[2-(2,6-dioxopiperidin-3-yl)-4-fluoro-1-oxo-3H-isoindol-5-yl]-3,3-dimethylpiperidin-1-yl}cyclobutoxy]piperidin-1-yl}pyrimidin-4-yl)amino]-1-isopropyl-2-oxoquinolin-3-yl}oxy)-N-methylacetamide]	–	–	< 10	≥ 70
CNC(=O)COc1cc2cc(Nc3nc(N4CCC(CN5CCC6(CCN(c7ccc8c(c7)CN(C7CCC(=O)NC7=O)C8=O)C6=O)C5)CC4)ncc3Cl)ccc2n(C(C)C)c1=O (stereo not drawn) [Compound 48, 2-{[6-({5-chloro-2-[4-({7-[2-(2,6-dioxopiperidin-3-yl)-1-oxo-2,3-dihydro-1H-isoindol-5-yl]-6-oxo-2,7-diazaspiro[4.4]nonan-2-yl}methyl)piperidin-1-yl]pyrimidin-4-yl}amino)-2-oxo-1-(propan-2-yl)-1,2-dihydroquinolin-3-yl]oxy}-N-methylacetamide]	–	–	< 10	50 to 70
CNC(=O)COc1cc2cc(Nc3nc(N4CCC(O[C@H]5C[C@H](N6CCC7(CN(c8ccc9c(c8)C(=O)N(C8CCC(=O)NC8=O)C9)C7)C6)C5)CC4)ncc3Cl)ccc2n(C(C)C)c1=O (stereo partly drawn) [Compound 345, 2-({6-[(5-chloro-2-{4-[(1r,3r)-3-{2-[2-(2,6-dioxopiperidin-3-yl)-3-oxo-2,3-dihydro-1H-isoindol-5-yl]-2,6-diazaspiro [3.4]octan-6-yl}cyclobutoxy]piperidin-1-yl}pyrimidin-4-yl)amino]-2-oxo-1-(propan-2-yl)-1,2-dihydroquinolin-3-yl}oxy)-N-methylacetamide]	≥ 70	< 10	–	–
CNC(=O)COc1cc2cc(Nc3nc(N4CCC(CN5CCC6(CC5)CC5(CN(c7cccc8c7C(=O)N(C7CCC(=O)NC7=O)C8=O)C5)C6)CC4)ncc3Cl)ccc2n(C(C)C)c1=O (stereo not drawn) [Compound 374, 2-{[6-({5-chloro-2-[4-({2-[2-(2,6-dioxopiperidin-3-yl)-1,3-dioxo-2,3-dihydro-1H-isoindol-4-yl]-2,9-diazadispiro[3.1.5^6.1^4]dodecan-9-yl}methyl)piperidin-1-yl]pyrimidin-4-yl}amino)-2-oxo-1-(propan-2-yl)-1,2-dihydroquinolin-3-yl]oxy}-N-methylacetamide]	≥ 70	< 10	–	–
CNC(=O)COc1cc2cc(Nc3nc(N4CCC(O[C@H]5C[C@H](N6CCC7(CN(c8ccc9c(c8)C(=O)N(C8CCC(=O)NC8=O)C9=O)C7)C6)C5)CC4)ncc3Cl)ccc2n(C(C)C)c1=O (stereo partly drawn) [Compound 338, 2-({6-[(5-chloro-2-{4-[(1r,3r)-3-{2-[2-(2,6-dioxopiperidin-3-yl)-1,3-dioxo-2,3-dihydro-1H-isoindol-5-yl]-2,6-diazaspiro[3.4]octan-6-yl}cyclobutoxy]piperidin-1-yl}pyrimidin-4-yl)amino]-2-oxo-1-(propan-2-yl)-1,2-dihydroquinolin-3-yl}oxy)-N-methylacetamide]	≥ 70	10 to 50	–	–
CNC(=O)COc1cc2cc(Nc3nc(N4CCC(O[C@H]5C[C@H](N6CCC(c7ccc8c(c7)C(=O)N(C7CCC(=O)NC7=O)C8=O)C(C)(C)C6)C5)CC4)ncc3Cl)ccc2n(C(C)C)c1=O (stereo partly drawn) [Compound 399, 2-({6-[(5-chloro-2-{4-[(1r,3r)-3-{4-[2-(2,6-dioxopiperidin-3-yl)-1,3-dioxo-2,3-dihydro-1H-isoindol-5-yl]-3,3-dimethylpiperidin-1-yl}cyclobutoxy]piperidin-1-yl}pyrimidin-4-yl)amino]-2-oxo-1-(propan-2-yl)-1,2-dihydroquinolin-3-yl}oxy)-N-methylacetamide]	≥ 70	10 to 50	–	–
CC(C)n1c(=O)c(OCC(=O)O)cc2cc(Nc3nc(N4CCC(O[C@H]5C[C@H](N6CCC(c7ccc8c(c7F)CN(C7CCC(=O)NC7=O)C8=O)CC6)C5)CC4)ncc3Cl)ccc21 (stereo partly drawn) [Compound 264, 2-({6-[(5-chloro-2-{4-[(1r,3r)-3-{4-[2-(2,6-dioxopiperidin-3-yl)-4-fluoro-1-oxo-2,3-dihydro-1H-isoindol-5-yl]piperidin-1-yl}cyclobutoxy]piperidin-1-yl}pyrimidin-4-yl)amino]-2-oxo-1-(propan-2-yl)-1,2-dihydroquinolin-3-yl}oxy)acetic acid]	≥ 70	< 10	–	–
CNC(=O)COc1cc2cc(Nc3nc(N4CCC(O[C@H]5C[C@H](N6CCN(c7ccc8c(c7F)CN(C7CCC(=O)NC7=O)C8=O)C[C@@H]6C)C5)CC4)ncc3Cl)ccc2n(C(C)C)c1=O (stereo partly drawn) [Compound 178]	–	–	< 10	≥ 70
CNC(=O)COc1cc2cc(Nc3nc(N4CCC(O[C@H]5C[C@H](N6CCC7(CCN(c8ccc9c(c8)CN(C8CCC(=O)NC8=O)C9=O)CC7)CC6)C5)CC4)ncc3Cl)ccc2n(C(C)C)c1=O (stereo partly drawn) [Compound 349, 2-({6-[(5-chloro-2-{4-[(1r,3r)-3-{9-[2-(2,6-dioxopiperidin-3-yl)-1-oxo-2,3-dihydro-1H-isoindol-5-yl]-3,9-diazaspiro [5.5]undecan-3-yl}cyclobutoxy]piperidin-1-yl}pyrimidin-4-yl)amino]-2-oxo-1-(propan-2-yl)-1,2-dihydroquinolin-3-yl}oxy)-N-methylacetamide]	≥ 70	< 10	–	–
CNC(=O)COc1cc2cc(Nc3nc(N4CCC(O[C@H]5C[C@H](N6CC=C(c7ccc8c(c7F)CN(C7CCC(=O)NC7=O)C8=O)CC6)C5)CC4)ncc3Cl)ccc2n(C(C)C)c1=O (stereo partly drawn) [Compound 426, 2-({6-[(5-chloro-2-{4-[(1r,3r)-3-{4-[2-(2,6-dioxopiperidin-3-yl)-4-fluoro-1-oxo-2,3-dihydro-1H-isoindol-5-yl]-1,2,3,6-tetrahydropyridin-1-yl}cyclobutoxy]piperidin-1-yl}pyrimidin-4-yl)amino]-2-oxo-1-(propan-2-yl)-1,2-dihydroquinolin-3-yl}oxy)-N-methylacetamide]	≥ 70	< 10	–	–
CNC(=O)COc1cc2cc(Nc3nc(N4CCC(O[C@H]5C[C@H](N6CCC(c7cc8c(cc7OC(C)C)C(=O)N(C7CCC(=O)NC7=O)C8=O)CC6)C5)CC4)ncc3Cl)ccc2n(C(C)C)c1=O (stereo partly drawn) [Compound 159, 2-[[6-[[5-chloro-2-[4-[3-[4-[2-(2,6-dioxo-3-piperidyl)-6-isopropoxy-1,3-dioxo-isoindolin-5-yl]-1-piperidyl]cyclobutoxy]-1-piperidyl]pyrimidin-4-yl]amino]-1-isopropyl-2-oxo-3-quinolyl]oxy]-N-methyl-acetamide]	–	–	< 10	≥ 70

From patent US11986532B2 (Arvinas Operations, Inc., priority 2021, dated 2024)
